Source: publication doi:10.1101/2025.05.30.657074, “A covalent recognition strategy enables conspecific mate identification” (bioRxiv, 2025)

How the values were obtained:
OR3_T91N = OR3_T91N (Bombyx mori, UniProt Q5FBE0, T91N); experiment: GCaMP6 calcium flux assay, BmOR3/Orco mutant T91N; format: cell-based
Excerpt: (§1) The first insect pheromone system characterized at the molecular level is that of Bombyx mori, a moth long known to navigate towards its mate guided solely by pheromone cues with impressive navigation accuracy. Two PR/Orco complexes, BmOR1/BmOrco and BmOR3/BmOrco, have been linked to the behavioral responses to pheromones in B. mori (Figure 1A). The conspecific pheromone, bombykol, is detected through BmOR1/Orco and leads to sexual attraction. The heterospecific pheromone, bombykal, is sensed through BmOR3/Orco, and leads to suppression of mating behavior. We first characterized the extent to which both PR/Orco complexes are selective towards their cognate ligands. We used a previously established calcium flux functional assay where we co-transfected HEK293 cells with either BmOR1 or BmOR3, along with the coreceptor, BmOrco (here on referred to as Orco), and the fluorescent calcium reporter, GCaMP6 (Figure 1C). In this assay, ligand-activation of the heteromeric ion channel complexes by addition of either bombykol or bombykal leads to calcium influx, read out as GCaMP6 fluorescence changes that can be monitored in real-time and dose-dependent manner using a fluorescence plate reader. […]
(§2) HEK293T cells were maintained at 37°C with 5% carbon dioxide and grown in high glucose DMEM enhanced with 10% FBS and 1% GlutaMAX (Gibco). […] Cells were kept at 37°C for 18-20 hours before being used for fluorescence plate reading. […]
(§3) On the day of the GCaMP6 assay, Bravo (Agilent), a versatile liquid handler was used to prepare both the odorant plate and the assay plate (transfected cell plate) prior to the fluorescence readout using the FDSS/µcell kinetic plate Imager (Hamamatsu, C13299).
(§4) For the odorant plate, the DMSO dissolved stock solutions were diluted in 19.8 µL of Reading buffer (20 mM HEPES/NaOH (pH 7.4), 1× HBSS (Gibco), 3 mM Na2CO3, 1 mM MgSO4, and 5 mM CaCl2) to give a final concentration ranging from 3.16 nM to 1 mM with 1% DMSO. […]
(§5) The kinetics of the fluorescence change upon odorant addition were measured using the FDSS/µcell kinetic plate Imager (Hamamatsu, C13299). […]

OR1_F161A = experiment: GCaMP6 calcium flux assay, BmOR1/Orco mutant F161A; format: cell-based, Bombyx mori
Excerpt: as §1, with “We used a previously established calcium flux functional assay where we co-transfected HEK293 cells with either BmOR1 or BmOR3, along with the coreceptor, BmOrco (here on referred to as Orco), and the fluorescent calcium reporter, GCaMP6 (Figure 1C).” left out
as §2, §5

OR1_N93T = OR1_N93T (Bombyx mori, UniProt Q5WA61, N93T); experiment: GCaMP6 calcium flux assay, BmOR1/Orco mutant N93T; format: cell-based
Excerpt: as §1, §2, §3, §4, §5

OR3_K58A = OR3_K58A (Bombyx mori, UniProt Q5FBE0, K58A); experiment: GCaMP6 calcium flux assay, BmOR3/Orco mutant K58A; format: cell-based
Excerpt: (§6) The first insect pheromone system characterized at the molecular level is that of Bombyx mori, a moth long known to navigate towards its mate guided solely by pheromone cues with impressive navigation accuracy. Two PR/Orco complexes, BmOR1/BmOrco and BmOR3/BmOrco, have been linked to the behavioral responses to pheromones in B. mori (Figure 1A). The conspecific pheromone, bombykol, is detected through BmOR1/Orco and leads to sexual attraction. The heterospecific pheromone, bombykal, is sensed through BmOR3/Orco, and leads to suppression of mating behavior. We first characterized the extent to which both PR/Orco complexes are selective towards their cognate ligands. We used a previously established calcium flux functional assay where we co-transfected HEK293 cells with either BmOR1 or BmOR3, along with the coreceptor, BmOrco (here on referred to as Orco), and the fluorescent calcium reporter, GCaMP6 (Figure 1C). In this assay, ligand-activation of the heteromeric ion channel complexes by addition of either bombykol or bombykal leads to calcium influx, read out as GCaMP6 fluorescence changes that can be monitored in real-time and dose-dependent manner using a fluorescence plate reader. […] But we also found both PR/Orco complexes to be somewhat promiscuous: both complexes are activated by their non-cognate pheromones (bombykal for BmOR1/Orco and bombykol for BmOR3/Orco) with a response that is ~10 fold smaller than their cognate pheromones. […] Instead, two complexes with reciprocal specificities enable an unequivocal response to bombykal and bombykol across all concentrations, ensuring the behavioral accuracy needed for mate selection.
(§7) The assay was performed similarly to method descriptions in previous studies.
(§8) All DNA constructs used in this assay were cloned into a modified pME18 vector that contains a SV40 promotor.
(§9) Each transfection condition (per well) contained a total of 300 ng of plasmids in 1:1:1 ratio of the GCaMP6, Orco, and the corresponding OR plasmid that was diluted in 4.8 uL of OptiMEM (Gibco) along with 0.1 uL of P3000. The mixture was incubated for 5 minutes and then further incubated for 20 minutes after being mixed with Lipofectamine 3000 (Invitrogen) diluted in OptiMEM. This mixture was scaled accordingly to batch transfect 50-100 wells per construct per plate.
(§10) HEK293T cells were maintained at 37°C with 5% carbon dioxide and grown in high glucose DMEM enhanced with 10% FBS and 1% GlutaMAX (Gibco). Cells were detached with TrypLE Express Enzyme and resuspended in FluoroBrite DMEM (Gibco) with 10% FBS and 1% GlutaMAX (Gibco) to a concentration of 5 × 10^5 cells/ml. Cells were combined with each transfection condition and added to 2x16 wells of a 384-well plate (Grenier CELLSTAR). Cells were kept at 37°C for 18-20 hours before being used for fluorescence plate reading.
(§11) Odorant plates were prepared using D300e (Hewlett Packard), a digital, non-contact dispenser. Briefly, stock solutions of bombykol and bombykal were prepared in DMSO and plated onto 384-plates (Greiner, Catalog #784201) in a titrating volume to obtain a concentration series ranging between 316 nM and 100 mM with a final volume of 0.2 µL.
(§12) The odorant plates were kept at −20 °C until usage.
as §3
as §4, with “DMSO. For the cell plate, the FluoroBrite DMEM (Gibco) was exchanged out with the” for “DMSO.”
as §5

BmOR1/Orco = BmOR1/Orco (Bombyx mori, UniProt Q5WA61); experiment: GCaMP6 calcium flux assay, wild-type BmOR1/Orco; format: cell-based
Excerpt: as §6, §7, §8, §9, §10, §11, §12, §3
as §4, with “DMSO. For the cell plate, the FluoroBrite DMEM (Gibco) was exchanged out with the” for “DMSO.”
as §5

OR1_M344A = OR1_M344A (Bombyx mori, UniProt Q5WA61, M344A); experiment: GCaMP6 calcium flux assay, BmOR1/Orco mutant M344A; format: cell-based
Excerpt: as §1, §2, §3, §4, §5

OR1_I343A = experiment: GCaMP6 calcium flux assay, BmOR1/Orco mutant I343A; format: cell-based, Bombyx mori
Excerpt: as §1, with “We used a previously established calcium flux functional assay where we co-transfected HEK293 cells with either BmOR1 or BmOR3, along with the coreceptor, BmOrco (here on referred to as Orco), and the fluorescent calcium reporter, GCaMP6 (Figure 1C).” left out
as §2, §5

OR3_K58Q = OR3_K58Q (Bombyx mori, UniProt Q5FBE0, K58Q); experiment: GCaMP6 calcium flux assay, BmOR3/Orco mutant K58Q; format: cell-based
Excerpt: as §6, §7, §8, §9, §10, §11, §12, §3
as §4, with “DMSO. For the cell plate, the FluoroBrite DMEM (Gibco) was exchanged out with the” for “DMSO.”
as §5

OR3_K58S = OR3_K58S (Bombyx mori, UniProt Q5FBE0, K58S); experiment: GCaMP6 calcium flux assay, BmOR3/Orco mutant K58S; format: cell-based
Excerpt: as §6, §7, §8, §9, §10, §11, §12, §3
as §4, with “DMSO. For the cell plate, the FluoroBrite DMEM (Gibco) was exchanged out with the” for “DMSO.”
as §5

OR1_L340A = OR1_L340A (Bombyx mori, UniProt Q5WA61, L340A); experiment: GCaMP6 calcium flux assay, BmOR1/Orco mutant L340A; format: cell-based
Excerpt: as §1, §2, §3, §4, §5

B. mori male moths = system: B. mori male moths; set-up: method as in PMID 24744736, PMID 22836825; details: conspecific male moths; cited from earlier work
OR3_T91A = OR3_T91A (Bombyx mori, UniProt Q5FBE0, T91A); experiment: GCaMP6 calcium flux assay, BmOR3/Orco mutant T91A; format: cell-based
Excerpt: as §1, §2, §3, §4, §5

OR1_L342A = OR1_L342A (Bombyx mori, UniProt Q5WA61, L342A); experiment: GCaMP6 calcium flux assay, BmOR1/Orco mutant L342A; format: cell-based
Excerpt: as §1, §2, §3, §4, §5

OR1_S60A = OR1_S60A (Bombyx mori, UniProt Q5WA61, S60A); experiment: GCaMP6 calcium flux assay, BmOR1/Orco mutant S60A; format: cell-based
Excerpt: as §1, §2, §3, §4, §5

OR1_N93A = OR1_N93A (Bombyx mori, UniProt Q5WA61, N93A); experiment: GCaMP6 calcium flux assay, BmOR1/Orco mutant N93A; format: cell-based
Excerpt: as §1, §2, §3, §4, §5

BmOR3/Orco = BmOR3/Orco (Bombyx mori, UniProt Q5FBE0); experiment: GCaMP6 calcium flux assay, wild-type BmOR3/Orco; format: cell-based
Excerpt: as §6, §7, §8, §9, §10, §11, §12, §3
as §4, with “DMSO. For the cell plate, the FluoroBrite DMEM (Gibco) was exchanged out with the” for “DMSO.”
as §5

OR3_K58S, sequence (Q5FBE0 entry or part of it K58S): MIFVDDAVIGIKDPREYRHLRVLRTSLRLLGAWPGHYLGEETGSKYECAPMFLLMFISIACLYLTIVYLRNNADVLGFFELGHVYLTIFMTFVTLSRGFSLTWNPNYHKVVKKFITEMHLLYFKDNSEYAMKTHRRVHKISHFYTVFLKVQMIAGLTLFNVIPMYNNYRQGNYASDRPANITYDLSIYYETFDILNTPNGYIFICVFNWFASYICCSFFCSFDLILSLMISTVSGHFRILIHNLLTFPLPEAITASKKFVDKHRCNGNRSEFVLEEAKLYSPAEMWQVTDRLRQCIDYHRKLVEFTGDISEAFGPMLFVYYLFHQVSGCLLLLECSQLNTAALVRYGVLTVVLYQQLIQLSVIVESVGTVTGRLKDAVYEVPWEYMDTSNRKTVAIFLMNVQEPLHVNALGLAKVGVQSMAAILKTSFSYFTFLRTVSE
OR3_K58S, sequence (Q7YT34 entry or part of it, stated change not applied, further chain): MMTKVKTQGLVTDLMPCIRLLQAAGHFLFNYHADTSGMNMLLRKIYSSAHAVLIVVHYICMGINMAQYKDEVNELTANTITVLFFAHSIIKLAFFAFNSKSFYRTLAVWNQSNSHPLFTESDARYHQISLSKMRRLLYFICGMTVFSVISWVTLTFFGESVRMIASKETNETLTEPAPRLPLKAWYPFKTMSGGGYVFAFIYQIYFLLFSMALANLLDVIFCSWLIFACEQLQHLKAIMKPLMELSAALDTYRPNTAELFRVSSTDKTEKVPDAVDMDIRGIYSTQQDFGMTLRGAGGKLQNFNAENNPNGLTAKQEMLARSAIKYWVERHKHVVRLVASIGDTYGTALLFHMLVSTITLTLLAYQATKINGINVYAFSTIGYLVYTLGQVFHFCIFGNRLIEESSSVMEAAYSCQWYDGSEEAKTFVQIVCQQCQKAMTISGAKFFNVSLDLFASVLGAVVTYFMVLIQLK
OR1_L340A, sequence (Q5WA61 entry or part of it L340A): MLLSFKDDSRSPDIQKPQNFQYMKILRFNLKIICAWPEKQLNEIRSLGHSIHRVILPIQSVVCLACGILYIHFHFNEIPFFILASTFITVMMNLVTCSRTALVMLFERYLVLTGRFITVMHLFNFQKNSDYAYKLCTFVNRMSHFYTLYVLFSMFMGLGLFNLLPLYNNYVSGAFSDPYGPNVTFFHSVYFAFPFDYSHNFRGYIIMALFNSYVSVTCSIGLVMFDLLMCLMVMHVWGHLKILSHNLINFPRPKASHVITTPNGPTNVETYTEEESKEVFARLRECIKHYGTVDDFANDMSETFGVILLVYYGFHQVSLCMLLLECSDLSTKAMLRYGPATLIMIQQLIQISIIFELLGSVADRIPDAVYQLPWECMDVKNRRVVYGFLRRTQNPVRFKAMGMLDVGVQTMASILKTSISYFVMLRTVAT
OR1_L340A, sequence (Q7YT34 entry or part of it, stated change not applied, further chain): as the sequence (Q7YT34 entry or part of it, stated change not applied, further chain) above
OR1_N93T, sequence (Q5WA61 entry or part of it N93T): as the sequence (Q5WA61 entry or part of it L340A) above, with N93T, A340L counted along it
OR1_N93T, sequence (Q7YT34 entry or part of it, stated change not applied, further chain): as the sequence (Q7YT34 entry or part of it, stated change not applied, further chain) above
OR3_K58Q, sequence (Q5FBE0 entry or part of it K58Q): as the sequence (Q5FBE0 entry or part of it K58S) above, with S58Q counted along it
OR3_K58Q, sequence (Q7YT34 entry or part of it, stated change not applied, further chain): as the sequence (Q7YT34 entry or part of it, stated change not applied, further chain) above
OR3_T91N, sequence (Q5FBE0 entry or part of it T91N): as the sequence (Q5FBE0 entry or part of it K58S) above, with S58K, T91N counted along it
OR3_T91N, sequence (Q7YT34 entry or part of it, stated change not applied, further chain): as the sequence (Q7YT34 entry or part of it, stated change not applied, further chain) above
OR1_N93A, sequence (Q5WA61 entry or part of it N93A): as the sequence (Q5WA61 entry or part of it L340A) above, with N93A, A340L counted along it
OR1_N93A, sequence (Q7YT34 entry or part of it, stated change not applied, further chain): as the sequence (Q7YT34 entry or part of it, stated change not applied, further chain) above
BmOR3/Orco, sequence (Q5FBE0 entry or part of it): as the sequence (Q5FBE0 entry or part of it K58S) above, with S58K counted along it
BmOR3/Orco, sequence (Q7YT34 entry or part of it, further chain): as the sequence (Q7YT34 entry or part of it, stated change not applied, further chain) above
OR3_K58A, sequence (Q5FBE0 entry or part of it K58A): as the sequence (Q5FBE0 entry or part of it K58S) above, with S58A counted along it
OR3_K58A, sequence (Q7YT34 entry or part of it, stated change not applied, further chain): as the sequence (Q7YT34 entry or part of it, stated change not applied, further chain) above
OR1_S60A, sequence (Q7YT34 entry or part of it, stated change not applied): as the sequence (Q7YT34 entry or part of it, stated change not applied, further chain) above
OR1_S60A, sequence (Q5WA61 entry or part of it S60A): as the sequence (Q5WA61 entry or part of it L340A) above, with S60A, A340L counted along it
OR3_T91A, sequence (Q7YT34 entry or part of it, stated change not applied): as the sequence (Q7YT34 entry or part of it, stated change not applied, further chain) above
OR3_T91A, sequence (Q5FBE0 entry or part of it T91A): as the sequence (Q5FBE0 entry or part of it K58S) above, with S58K, T91A counted along it
OR1_L342A, sequence (Q7YT34 entry or part of it, stated change not applied): as the sequence (Q7YT34 entry or part of it, stated change not applied, further chain) above
OR1_L342A, sequence (Q5WA61 entry or part of it L342A): as the sequence (Q5WA61 entry or part of it L340A) above, with A340L, L342A counted along it
BmOR1/Orco, sequence (Q7YT34 entry or part of it): as the sequence (Q7YT34 entry or part of it, stated change not applied, further chain) above
BmOR1/Orco, sequence (Q5WA61 entry or part of it): as the sequence (Q5WA61 entry or part of it L340A) above, with A340L counted along it
OR1_M344A, sequence (Q5WA61 entry or part of it M344A): as the sequence (Q5WA61 entry or part of it L340A) above, with A340L, M344A counted along it
OR1_M344A, sequence (Q7YT34 entry or part of it, stated change not applied, further chain): as the sequence (Q7YT34 entry or part of it, stated change not applied, further chain) above

For `CCC/C=C\C=C\CCCCCCCCCO` [Bombykol, bombykol], the EC50 (OR3_T91N) was 1000 nM, the “Hill Coefficient (n± SE)” value (OR3_T91N; OR3_T91N) was 1.7 ± 0.2 and the “Max (ΔF/F ± SE)” value (OR3_T91N; OR3_T91N) was 0.64 ± 0.07 ΔF/F. For the same molecule, the “Max (ΔF/F ± SE)” value (OR1_F161A) was 0.04 ± 0.02 ΔF/F, the EC50 (OR1_N93T) was 1000 nM and the “Hill Coefficient (n± SE)” value (OR1_N93T; OR1_N93T) was 2.0 ± 0.3. For the same molecule, the “Max (ΔF/F ± SE)” value (OR1_N93T; OR1_N93T) was 1.02 ± 0.08 ΔF/F, the EC50 (OR3_K58A) was 251 nM and the “Hill Coefficient (n± SE)” value (OR3_K58A; OR3_K58A) was 15 ± 6. For the same molecule, the “Max (ΔF/F ± SE)” value (OR3_K58A; OR3_K58A) was 0.15 ± 0.06 ΔF/F, the EC50 (BmOR1/Orco; EC50, HEK293 cells co-transfected with BmOR1, BmOrco, GCaMP6) was 270 nM and the EC50 (BmOR1/Orco; Mean (-log EC50 ± SE), wild-type BmOR1/Orco) was 269 nM. The “Hill Coefficient (n± SE)” value (BmOR1/Orco; wild-type BmOR1/Orco) was 1.6 ± 0.1, the “Max (ΔF/F ± SE)” value (BmOR1/Orco; wild-type BmOR1/Orco, ΔF/F at highest ligand concentration) was 0.98 ± 0.07 ΔF/F and the EC50 (OR1_M344A) was 1000 nM. For the same molecule, the “Hill Coefficient (n± SE)” value (OR1_M344A; OR1_M344A) was 1.5 ± 0.3, the “Max (ΔF/F ± SE)” value (OR1_M344A; OR1_M344A) was 0.84 ± 0.03 ΔF/F and the “Max (ΔF/F ± SE)” value (OR1_I343A) was 0.14 ± 0.01 ΔF/F. The EC50 (OR3_K58Q) was 794 nM, the “Hill Coefficient (n± SE)” value (OR3_K58Q; OR3_K58Q) was 5 ± 3 and the “Max (ΔF/F ± SE)” value (OR3_K58Q; OR3_K58Q) was 0.66± 0.06 ΔF/F. For the same molecule, the EC50 (OR3_K58S) was 3.16 µM, the “Hill Coefficient (n± SE)” value (OR3_K58S; OR3_K58S) was 1.2 ± 0.3 and the “Max (ΔF/F ± SE)” value (OR3_K58S; OR3_K58S) was 0.42 ± 0.07 ΔF/F. For the same molecule, the EC50 (OR1_L340A) was 2000 nM, the “Hill Coefficient (n± SE)” value (OR1_L340A; OR1_L340A) was 2.0 ± 0.3 and the “Max (ΔF/F ± SE)” value (OR1_L340A; OR1_L340A) was 0.48 ± 0.08 ΔF/F. The behavioral response (B. mori male moths) was “aggressive attraction behavior”, the EC50 (OR3_T91A) was 3.98 µM and the “Hill Coefficient (n± SE)” value (OR3_T91A; OR3_T91A) was 0.9 ± 0.3. For the same molecule, the “Max (ΔF/F ± SE)” value (OR3_T91A; OR3_T91A) was 0.31 ± 0.05 ΔF/F, the EC50 (OR1_L342A) was 794 nM and the “Hill Coefficient (n± SE)” value (OR1_L342A; OR1_L342A) was 1.4 ± 0.2. The “Max (ΔF/F ± SE)” value (OR1_L342A; OR1_L342A) was 0.87 ± 0.08 ΔF/F, the EC50 (OR1_S60A) was 501 nM and the “Hill Coefficient (n± SE)” value (OR1_S60A; OR1_S60A) was 2.1 ± 0.3. The “Max (ΔF/F ± SE)” value (OR1_S60A; OR1_S60A) was 1.1 ± 0.1 ΔF/F, the EC50 (OR1_N93A) was 5.01 µM and the “Hill Coefficient (n± SE)” value (OR1_N93A; OR1_N93A) was 1.0 ± 0.3. The “Max (ΔF/F ± SE)” value (OR1_N93A; OR1_N93A) was 0.63 ± 0.04 ΔF/F, the EC50 (BmOR3/Orco; EC50, HEK293 cells co-transfected with BmOR3, BmOrco, GCaMP6) was 1300 nM and the EC50 (BmOR3/Orco; Mean (-log EC50 ± SE), wild-type BmOR3/Orco) was 1290 nM. For the same molecule, the “response to non-cognate pheromone, fold smaller than cognate pheromone” value (BmOR3/Orco; bombykol vs cognate bombykal at BmOR3/Orco) was ~ 10 fold, the “Hill Coefficient (n± SE)” value (BmOR3/Orco; wild-type BmOR3/Orco) was 1.0 ± 0.1 and the “Max (ΔF/F ± SE)” value (BmOR3/Orco; wild-type BmOR3/Orco, ΔF/F at highest ligand concentration) was 0.61 ± 0.04 ΔF/F.
